The text below walks through data of patent US9193687B2 (priority 2007, dated 2015).

Data set [1] deals with CCRF-CEM human lymphoblastic leukemia cells. The data set can be described thus: cells. The following applies: read-out: Cytotoxicity IC50, CCRF-CEM.
Another data set concerns prostate cancer (PC3). The data set can be described thus: cells. Conditions: Homo sapiens, read-out: Cytotoxicity IC50, PC3.
In a further data set the test system is lung cancer H460. The data set can be described thus: cells. The following applies: Homo sapiens, NCI-H460, read-out: Cytotoxicity IC50, H460.
In data set [2] the test system is Human colon carcinoma HCT-116 cells. The data set can be described thus: cells.
The next data set deals with lung cancer H1299. The data set can be described thus: cells. The following applies: Homo sapiens, NCI-H1299, read-out: Cytotoxicity IC50, H1299.
Another data set has as its system CCRF-CEM/Taxol. The data set can be described thus: In vitro cytotoxicity, XTT assay, taxol-resistant subline. The following applies: Homo sapiens, CCRF-CEM, 72 h, read-out: Cytotoxicity IC50, CCRF-CEM/Taxol. (In general: Tetrazolium assays rely on reduction of a dye to a coloured formazan, in cell work by metabolically active cells.)
In data set [3] the test system is Human mammary carcinoma (MX-1) tumor cells. The experiment in a line: In vitro cytotoxicity, SRB assay, 72-hr incubation. Conditions: Homo sapiens, 72 h, read-out: Cytotoxicity IC50, MX-1. (In general: The SRB assay estimates cell density from bound dye.)
The subject of data set [4] is human mammary carcinoma MX-1 xenograft. The data set can be described thus: Antitumor therapeutic effect against MX-1 xenograft in nude mice. It is filed as in vivo. Conditions: for Therapeutic effect: complete tumor remission (CR), mice with CR/total and day / Maximal body-weight loss (%) / Therapeutic effect: tumor relapse: i.v. injection; for Therapeutic effect: complete tumor remission (CR), mice with CR/total and day: treatment from Day 8, dose and schedule per compound as in Table 3 (30-150 mg/kg); for Maximal body-weight loss (%) / Therapeutic effect: tumor relapse: dose and schedule per compound as in Table 3; for Remark (dose tolerability): BO-1053 70 mg/kg Q2Dx5, BO-1063 and BO-1065 100 mg/kg QDx3, i.v. Here is the method:
Athymic nude mice bearing the nu/nu gene were obtained from NCI, Frederick, Md. and used for all human tumor xenografts. Male nude mice 6 weeks or older weighing 20-24 g or more were used. Compounds were administered via the tail vein for i.v. injection or infusion as described previously.^64 A typical formulation for chemotherapeutic studies for each drug was dissolved in DSMO to make a 25 mg/ml fresh solution, 0.4 ml of this solution was mixed with 0.3 ml of Tween 80, plus 1.3 ml to make 2 ml of 5 mg/ml solution. Bolus injection volume was 0.1-0.2 ml per mouse. Tumor volume was assessed by measuring length×width×height (or width) by using a caliper. For tumor-bearing nude mice during the course of the experiment, the body weight refers to total weight minus the weight of the tumor. All animal studies were conducted in accordance with the guidelines for the National Institute of Health Guide for the Care and Use of Animals and the protocol approved by the Institutional Animal Care and Use Committee.
The therapeutic effects of a drug against human tumor xenografts in nude mice, under the optimal therapeutic conditions but without any lethality due to drug toxicity, the following degrees of therapeutic effects are defined and calculated by the following formula: […]
where • T0 is the initial tumor size (in mm^3) at beginning of drug treatment; • Tc is tumor size of untreated control group on a given date; and • Tx is tumor size of the drug treated group on a given date.
[formula] • Tumor disappearance (complete remission or CR) is defined by the effect where • [Tx=0] for a period of time (in days) for a proportion of animals (NCR/N), where • N is the total number of animals in the group, and NCR is the number of mice in the group that achieved CR. • Tumor relapse is quantitatively calculated by • [The Day tumor relapsed (Drelp)—The Day CR achieved (DCR)] (Eq. 3) for a proportion of animals (Nrelp/N) where N is the total number of animals in the group, and Nrelp is the number of the mice in the group that relapsed. • The log cell kill (LCK) of the tumor tissue after a given chemotherapy that reached CR is estimated by: LCK=log [2^(Tumor remission in days/Tumor doubling time in days)] (Eq. 4)
Athymic nude mice bearing the nu/nu gene were used for human breast tumor MX-1 xenograft (FIGS. 3 and 4) and human brain glioma U87 GM xenograft (FIG. 5). Nude mice were obtained from National Cancer Institute, Frederick, Md. Male mice 6 weeks old or older weighing 22 g or more were used for experiments with subcutaneous tumor inoculation as described previously.^67 Drug was administrated via the tail vein by iv injection. Tumor volumes were assessed by measuring length×width×height (or width) by using caliper. Vehicle used was 20 μL DMSO in 180 μL saline. All animal studies were conducted in accordance with the guidelines of the U.S. National Institutes of Health Guide for the Care and Use of Animals and the protocol approved by the Institutional Animal Care and Use Committee.

Where [5] appears, read: HCT-116, read-out: Cytotoxicity IC50, HCT-116.
Setting [6] is: HCT-116, 72 h, read-out: Cytotoxicity IC50, HCT-116.

Several values for one entry are separate records, joined by “and”; a condition that tells them apart may be missing. Equal entries are not always repeated. Where two headings read alike, the source gives them in different places.

As to `CCN(CC)CC(=O)Nc1cccc(NC(=O)Nc2ccc(N(CCCl)CCCl)cc2)c1` [BO-2183], the IC50 in data set [1] was found to be 2010 nM; in the data set with prostate cancer (PC3) it was 13000 nM; with lung cancer H460, 5670 nM; in data set [2] (setting [5]), 4620 nM; in the data set on lung cancer H1299, 11700 nM.
In the same order, the values of `CN(C)CCC(=O)Nc1cccc(NC(=O)Nc2ccc(N(CCCl)CCCl)cc2)c1` [BO-2091, N-(3-(3-(4-(bis(2-chloroethyl)amino)-phenyl)ureido)phenyl)-3-(dimethylamino)-propanamide] are 520 nM, 13500 nM, 16800 nM, 3280 nM and 8990 nM.
Turning to `O=C(CN1CCCC1)Nc1ccc(NC(=O)Nc2ccc(N(CCCl)CCCl)cc2)cc1` [BO-2093], the IC50 in data set [1] worked out at 260 nM; with prostate cancer (PC3), 3520 nM; in the data set with lung cancer H460, 950 nM; in the data set with lung cancer H1299 it was 3410 nM.
As for `Cc1cccc2c(Nc3cc(CO)cc(NC(=O)Nc4ccc(N(CCCl)CCCl)cc4)c3)c3ccccc3nc12` [BO-1050, 1-{4-[bis(2-chloroethyl)amino]phenyl}-3-[3-hydroxymethyl-5-(4-methylacridin-9-ylamino)phenyl]urea], the IC50 in the data set with CCRF-CEM/Taxol is 390 nM; in data set [3] it was 120 nM; in data set [2] (setting [6]), 260 nM. For the same compound, the “Therapeutic effect: complete tumor remission (CR), mice with CR/total and day” value (shortened to “Therapeutic effect … with CR/total and day”) in data set [4] is “achieved CR in parts of the mice and 2/2 CR on D16, 18”. Moreover, the “Maximal body-weight loss (%)” value in data set [4] is 9%. Further, the “Therapeutic effect: tumor relapse” value in data set [4] is “No relapse on D26”.
Regarding `CCN(CC)CC(=O)Nc1ccc(NC(=O)Nc2ccc(N(CCCl)CCCl)cc2)cc1` [BO-2094, N-(4-(3-(4-(Bis(2-chloroethyl)amino)phenyl)ureido)-phenyl)-2-(diethylamino)-acetamide], the IC50 was found to be 3570 nM in the data set on prostate cancer (PC3), 930 nM in the data set on lung cancer H460, 1700 nM in data set [2] (setting [5]) and 3430 nM in the data set with lung cancer H1299.
In the case of `O=C(Nc1cc(CO)cc(Nc2c3ccccc3nc3ccccc23)c1)Oc1ccc(N(CCCl)CCCl)cc1` [BO-1062, [3-(acridin-9-ylamino)-5-hydroxymethylphenyl]carbamic acid 4-[bis(2-chloroethyl)amino]phenyl ester], the IC50 in the data set on CCRF-CEM/Taxol stood at 140 nM; in data set [3], 100 nM; in data set [1] (72 h) it was 80 nM; in data set [2] (setting [6]), 570 nM. For the same compound, the “Therapeutic effect … with CR/total and day” value in data set [4] was “achieved complete tumor remission and 1/1 CR on D22”. For the same compound, the “Maximal body-weight loss (%)” value in data set [4] is reported as 17%.
`Cc1cccc2c(Nc3cc(CO)cc(NC(=O)Oc4ccc(N(CCCl)CCCl)cc4)c3)c3ccccc3nc12` [BO-1063, [3-hydroxymethyl-5-(4-methylacridin-9-ylamino)phenyl]carbamic acid 4-[bis(2-chloroethyl)-amino]phenyl ester]: the IC50 amounted to 100 nM with CCRF-CEM/Taxol, 80 nM in data set [3], 70 nM in data set [1] (72 h) and 440 nM in data set [2] (setting [6]). Moreover, the “Remark (dose tolerability)” value in data set [4] is “Too high dose”.
For `Cc1ccc(NC(=O)Nc2ccc(N(CCCl)CCCl)cc2)cc1Nc1c2cccc(C)c2nc2c(C(=O)NCCN(C)C)cccc12` [BO-1053, 9-[5-(3-{4-[bis(2-chloroethyl)amino]phenyl}ureido)-2-methyl-phenylamino]-5-methyl-acridine-4-carboxylic acid (2-dimethylaminoethyl)amide], the IC50 in the data set on CCRF-CEM/Taxol was determined as 180 nM; in data set [3], 60 nM; in data set [1] (72 h), 10 nM; in data set [2] (setting [6]), 60 nM. Also, in data set [4], the “Remark (dose tolerability)” value was “Too high dose”. In addition, the “Therapeutic effect … with CR/total and day” value in data set [4] is “achieved complete tumor remission”.
As for `O=C(CCN1CCCCC1)Nc1ccc(NC(=O)Nc2ccc(N(CCCl)CCCl)cc2)cc1` [BO-2057], the IC50 turned out to be 2280 nM in the data set on prostate cancer (PC3), 1580 nM in the data set on lung cancer H460 and 3030 nM in the data set with lung cancer H1299.
Take `Cc1ccc(Nc2c3ccccc3nc3c(C)cccc23)cc1NC(=O)Oc1ccc(N(CCCl)CCCl)cc1` [BO-1064, [2-methyl-5-(4-methylacridin-9-ylamino)phenyl]-carbamic acid 4-[bis(2-chloroethyl)amino]phenyl ester]: the IC50 in the data set on CCRF-CEM/Taxol turned out to be 170 nM; in data set [3], 290 nM; in data set [1] (72 h), 130 nM; in data set [2] (setting [6]) it was 610 nM. In addition, the “Therapeutic effect … with CR/total and day” value in data set [4] was “achieved complete tumor remission and 1/1 CR on D22”. Moreover, the “Maximal body-weight loss (%)” value in data set [4] is recorded as “Died of”.
Take `O=C(Nc1ccc(N(CCCl)CCCl)cc1)Nc1cc(CO)cc(Nc2c3ccccc3nc3ccccc23)c1` [BO-1037, 1-[3-(acridin-9-ylamino)-5-hydroxymethylphenyl]-3-{4-[bis(2-chloroethyl)amino]phenyl}urea]: the IC50 in the data set with CCRF-CEM/Taxol came out at 17100 nM; in data set [3], 370 nM; in data set [1] (72 h), 60 nM; in data set [2] (setting [6]), 220 nM. For the same compound, the “Therapeutic effect … with CR/total and day” value in data set [4] is “achieved CR in parts of the mice and 2/3 CR on D23, 25”. Also, the “Maximal body-weight loss (%)” value in data set [4] is recorded as 12%. Also, in data set [4], the “Therapeutic effect: tumor relapse” value is 2/3 relapsed on D40, 40.
Turning to `Cc1cc(NC(=O)Nc2ccc(N(CCCl)CCCl)cc2)cc(Nc2c3ccccc3nc3ccccc23)c1` [BO-1079, 1-[3-(acridin-9-ylamino)-5-methylphenyl]-3-{4-[bis(2-chloroethyl)amino]phenyl}urea], the IC50 with CCRF-CEM/Taxol worked out at 380 nM; in data set [3] it was 530 nM; in data set [1] (72 h), 140 nM; in data set [2] (setting [6]), 800 nM. Besides, the “Therapeutic effect: tumor growth suppression” value in data set [4] (75 mg/kg, QDx8, i.v., 1/1 mouse) was 1/1, >99% tumor. Also, in data set [4], the “Maximal body-weight loss (%)” value was determined as 9%.
As to `CCOC(=O)Nc1cc(COC(=O)Oc2ccc(N(CCCl)CCCl)cc2)cc(Nc2c3ccccc3nc3ccccc23)c1` [BO-1065, carbonic acid 3-(acridin-9-yl-amino)-5-ethoxycarbonylaminobenzyl ester 4-[bis(2-chloroethyl)amino]phenyl ester], the IC50 in the data set on CCRF-CEM/Taxol was found to be 510 nM; in data set [3], 90 nM; in data set [2] (setting [6]) it was 640 nM. For the same compound, the “Remark (dose tolerability)” value in data set [4] is given as “Too high dose”.
As to `COc1cc(NC(=O)Oc2ccc(N(CCCl)CCCl)cc2)cc(Nc2c3ccccc3nc3ccccc23)c1` [BO-1066, [3-(acridin-9-ylamino)-5-methoxyphenyl]carbamic acid 4-[bis(2-chloroethyl)amino]phenyl ester], the IC50 with CCRF-CEM/Taxol was 310 nM; in data set [3], 340 nM; in data set [1] (72 h), 210 nM; in data set [2] (setting [6]), 1710 nM. Moreover, the “Therapeutic effect … with CR/total and day” value in data set [4] was “achieved complete tumor remission and 1/1 CR on D22”. For the same compound, the “Maximal body-weight loss (%)” value in data set [4] was 13%.
Consider `O=C(NNc1cc(-c2ccccc2)nc2cc3c(cc12)OCO3)Nc1ccc(N(CCCl)CCCl)cc1` [BO-1391], for which the IC50 in the data set on CCRF-CEM/Taxol was found to be 570 nM; in data set [3], 1020 nM; in data set [1] (72 h), 260 nM; in data set [2] (setting [6]), 2020 nM.
For the compound `Cc1cc(NNC(=O)Nc2ccc(N(CCCl)CCCl)cc2)c2ccccc2n1` [BO-1233, N-{4-[bis(2-chloroethyl)amino]phenyl}-2-(2-methyl-4-quinolinyl)hydrazinecarboxamide], the IC50 with CCRF-CEM/Taxol stood at 1830 nM; in data set [3], 360 nM; in data set [1] (72 h), 120 nM; in data set [2] (setting [6]), 380 nM.
